Data reported in patent US6734165B2, “Method for re-sensitizing vancomycin resistant bacteria which selectively cleave a cell wall depsipeptide” (The Trustees of Columbia University in the City of New York, priority 2001, dated 2004).
Where two headings read alike, the source gives them in different places.

Tests used:
[1] = Combinatorial library screening on beads against red dye-labeled substrate 1; settings: substrate 1 in 12DCE or DMF, 3-5 days
Description: Substrate 1 is treated with combinatorial libraries of potential nucleophiles on solid phase synthesis beads (2), and then those library members are selected that covalently linked the dye to a bead (3). This could be possible assuming that noncovalently bound material would be washed away with a polar solvent (Scheme 2). [drawing 4]
The assay for screening these libraries against 1 involves shaking a desired amount of library beads with the solution of labeled substrate for a period of time. To the library beads were added 200 μL solution of substrate 1 in 12DCE (or DMF), and the mixture was rotated for 3-5 days in a small glass vial. DMF was added and shaking continued for 1 h. Solvent was removed and the washing was repeated several times. One wash was performed with one drop of benzylamine added to DMF to remove any remaining physically bound substrate. The strongly red beads were picked individually in 1.5 μL DMF (in 25 μL capillaries) and photolysed for 6 h under a short wave UV lamp. Decoding was achieved by injecting the content of each capillary in EC-GC and comparing the chromatogram to a standard (20,21).
After the reaction occurred, the label-carrying beads were selected and analyzed (20,21). The initial assays were performed in 1,2-dichloroethane (12DCE) at a concentration of 2.3 mM in substrate 1.
The assay for screening these libraries against 1 involved shaking a desired amount of library beads with the solution of labeled substrate for a period of time. After the reaction occured, the label-carrying beads were selected and analyzed. The initial assays were performed in 1,2-dichloroethane (12DCE) at a concentration of 2.3 mM in substrate 1. After 3 days of shaking, the beads were extensively washed with dimethylformamide (DMF) and once with a diluted solution of benzylamine in DMF to remove any physically bound substrate (FIGS. 9A and 9B).

[2] = Hydrolysis of D—Ala—D—Lac depsipeptide derivative 5 in aqueous phosphate buffer, followed by HPLC; type: biochemical; settings: substrate 5 0.5 mM, phosphate buffer pH 7.0, 37° C.; for effect on the rate of hydrolysis over buffer: peptides 12 mM
Description: The ability of peptide 4a in cleaving the substrate 5 was assessed in aqueous phosphate buffer pH=7 at 37° C. Stock solutions of 16 mM of 5 and 130 mM of peptide were made in water. Phosphate buffer solution of 25 mM was made by adjusting the pH of a K2HPO4 solution to 7.0 by addition of concentrated HCl. To a 1.5 mL glass vial (Waters) were added 5 μL stock solution of 5 and 15 μL stock solution of peptide, followed by 135 μL buffer. The volume was adjusted to 160 μL by addition of water. Vials were kept in an incubator at 37° C. and 2 μL aliquots were taken every 3 h. Each aliquot was diluted with water to 5 μL and 2 μL were injected in HPLC. Separation of components was carried out on a reverse phase column C18 (Waters) using a gradient water/acetonitrile (0.1% TFA).
Using HPLC and monitoring the p-NO2-phenyl derivative by UV at 275 nm, we could easily follow the disappearance of D—Ala—D—Lac derivative 5 and the formation of the hydrolyzed product 4. Under these conditions, we observed a 20% cleavage of the depsipeptide in 24 hrs. […] This proves that the whole structural assembly is necessary for the reaction to occur and that the reaction is not an artifact resulted by a change in the pH of the media due to the presence of the amine functionality.
N-acylated prolinol derivatives (FIG. 5) are the simplest structures that could fulfill such requirements. Their primary alcohol functionality forms an internal H-bond with the amide, the structures allow for the addition of the […] (NH2) through various linkers and moreover, are chiral molecules. The derivatives were tested for their ability to cleave 5 in aqueous phosphate buffer pH=7.0 at 37° C. (FIG. 6). […] One explanation for the higher activity of the very simple molecule SProC5 compared to 4a is the enhanced nucleophilicity of its hydroxyl (H position in H^1 NMR 7.59 ppm vs 6.62 ppm). Activity declines in the series with the decrease of the chain length from 5 carbons to 1 carbon. […] To confirm these speculations we compared the chemical shifts of the OH and NH in the H^1 NMR spectra of the NHBoc protected SProCn series (Table 1).
Substrate 5 was used at 0.5 mM, while prolinol derivatives were run at 12 mM. The graph is the average of three separate assays (FIG. 6).
The ability of peptide 4a in cleaving the substrate 5 was assessed in aqueous phosphate buffer pH 7 at 37° C. Using HPLC and monitoring the p-NO2-phenyl derivative by UV at 275 nm, we could easily follow the disappearance of D—Ala—D—Lac derivative 5 and the formation of the hydrolyzed product 4. […] A 20% hydrolysis of D—Ala—D—Lac in the presence of 4a was observed after 24 h.
The prolinol derivatives were additionally, tested for their ability to cleave 5 in aqueous phosphate buffer pH 7.0 at 37° C. […]

[3] = incorporation of D—Ala—D—Lac by VRE; cited from earlier work
[4] = system: enterococcus; settings: cited from earlier work

Compound	activity in bead screening (red beads / active sequence) [1]	effect on the rate of hydrolysis over buffer [2]	also measured
D—Lys—L—Pro—D—Ser dimethylurea	never found as an active sequence		
BnNHL—Lys—D—Pro—L—SerCONMe2 [4a]			cleavage of the depsipeptide in 24 hrs ([2]; compound 12 mM, 24 h): 20%
BnNHL—LysNHAc [compound 8]		No significant effect	
D—Asn—L—Lys—L—Pro—L—SerNH2	active sequence		
BnNHL—Lys—D—Pro—L—Ser(tBut)CONMe2 [compound 7]		No significant effect	
L—Lys—D—Pro—L—Ser dimethylurea	an active sequence found more frequently in the assays		
CN[C@H](CC(C)C)C(=O)N[C@H]1C(=O)N[C@@H](CC(N)=O)C(=O)N[C@H]2C(=O)N[C@H]3C(=O)N[C@H](C(=O)N[C@H](C(=O)O)c4cc(O)cc(O)c4-c4cc3ccc4O)[C@H](O)c3ccc(c(Cl)c3)Oc3cc2cc(c3O[C@@H]2O[C@H](CO)[C@@H](O)[C@H](O)[C@H]2O[C@H]2C[C@](C)(N)[C@H](O)[C@H](C)O2)Oc2ccc(cc2Cl)[C@H]1O [vancomycin]			decrease of affinity of vancomycin for the peptidoglycan layer [3]: over 1000 fold; MIC of vancomycin ([4]; 10% of the peptidoglycan altered to D—Ala—D—Lac): 32 µg/mL; MIC of vancomycin ([4]; unaltered peptidoglycan): 2 µg/mL
BnNHD—Pro—L—Ser(OH)NHCONMe2 [compound 6]		No significant effect	
